This passage reports relative viability results from the supplement of paper PMC10307832.

Test in all cases: relative viability (nuclei count vs DMSO), 5 days (fraction); higher = more cells survive
Compound in the experiment “AGI-6780 + Trametinib”: O=C(Nc1cccc(C(F)(F)F)c1)Nc1cc(S(=O)(=O)NC2CC2)ccc1-c1ccsc1 [AGI-6780] + CC(=O)Nc1cccc(-n2c(=O)n(C3CC3)c(=O)c3c(Nc4ccc(I)cc4F)n(C)c(=O)c(C)c32)c1 [Trametinib] (partner 0.02 µM)
Put shortly: (§1)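 Each reported value is a median over duplicate plates. It expresses relative viability: treated-well nuclei count divided by vehicle-well nuclei count. Lung cancer cell lines in 1536-well plates were dosed by pin tool a day after seeding, alone with one drug or with a fixed anchor-drug dose plus five library-drug doses (not always all listed) in √10 steps, and nuclei were counted after 5 days.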

Compound in the experiment “AGI-6780 + Navitoclax”: O=C(Nc1cccc(C(F)(F)F)c1)Nc1cc(S(=O)(=O)NC2CC2)ccc1-c1ccsc1 [AGI-6780] + CC1(C)CCC(c2ccc(Cl)cc2)=C(CN2CCN(c3ccc(C(=O)NS(=O)(=O)c4ccc(N[C@H](CCN5CCOCC5)CSc5ccccc5)c(S(=O)(=O)C(F)(F)F)c4)cc3)CC2)C1 [Navitoclax] (partner 0.5 µM)
The procedure, abridged: as §1

Compound in the experiment “AGI-6780 + Phenformin”: O=C(Nc1cccc(C(F)(F)F)c1)Nc1cc(S(=O)(=O)NC2CC2)ccc1-c1ccsc1 [AGI-6780] + N=C(N)NC(=N)NCCc1ccccc1 [Phenformin] (partner 250 µM)
Put shortly:
as §1

Compound in the experiment “AGI-6780 + Pemetrexed”: O=C(Nc1cccc(C(F)(F)F)c1)Nc1cc(S(=O)(=O)NC2CC2)ccc1-c1ccsc1 [AGI-6780] + Nc1nc2[nH]cc(CCc3ccc(C(=O)N[C@@H](CCC(=O)O)C(=O)O)cc3)c2c(=O)[nH]1 [Pemetrexed] (partner 0.2 µM)
The procedure, abridged: as §1

As to NCI-H23, the relative viability with AGI-6780 + Trametinib (first compound 0.08 µM) came to 0.394; with AGI-6780 + Trametinib (first compound 0.253 µM), 0.39; with AGI-6780 + Trametinib (first compound 0.8 µM), 0.375; with AGI-6780 + Trametinib (first compound 2.53 µM), 0.272; with AGI-6780 + Trametinib (first compound 8 µM), 0.494; with AGI-6780 + Navitoclax (first compound 0.08 µM) it was 0.844. The relative viability was 0.951 with AGI-6780 + Navitoclax (first compound 0.253 µM); 0.835 in the experiment with AGI-6780 + Navitoclax (first compound 0.8 µM); 0.555 in the experiment with AGI-6780 + Navitoclax (first compound 2.53 µM); 0.802 in the experiment with AGI-6780 + Navitoclax (first compound 8 µM); 0.822 with AGI-6780 + Phenformin (first compound 0.08 µM); 0.747 with AGI-6780 + Phenformin (first compound 0.253 µM). Also, the relative viability in the experiment with AGI-6780 + Phenformin (first compound 0.8 µM) amounted to 0.766; with AGI-6780 + Phenformin (first compound 2.53 µM), 0.719; in the experiment with AGI-6780 + Phenformin (first compound 8 µM), 0.784; in the experiment with AGI-6780 + Pemetrexed (first compound 0.08 µM) it was 0.568; in the experiment with AGI-6780 + Pemetrexed (first compound 0.253 µM), 0.733; with AGI-6780 + Pemetrexed (first compound 0.8 µM), 0.758. The relative viability was found to be 0.787 with AGI-6780 + Pemetrexed (first compound 2.53 µM) and 0.799 with AGI-6780 + Pemetrexed (first compound 8 µM).
Regarding NCI-H2126, the relative viability with AGI-6780 + Trametinib (first compound 0.08 µM) stood at 0.613; with AGI-6780 + Trametinib (first compound 0.253 µM), 0.601; in the experiment with AGI-6780 + Trametinib (first compound 0.8 µM), 0.507; in the experiment with AGI-6780 + Trametinib (first compound 2.53 µM), 0.479; with AGI-6780 + Trametinib (first compound 8 µM), 0.566; with AGI-6780 + Navitoclax (first compound 0.08 µM), 0.926. Moreover, the relative viability with AGI-6780 + Navitoclax (first compound 0.253 µM) worked out at 0.898; in the experiment with AGI-6780 + Navitoclax (first compound 0.8 µM), 0.839; with AGI-6780 + Navitoclax (first compound 2.53 µM), 0.738; with AGI-6780 + Navitoclax (first compound 8 µM), 0.84; with AGI-6780 + Phenformin (first compound 0.08 µM) it was 0.543; with AGI-6780 + Phenformin (first compound 0.253 µM), 0.568. In addition, the relative viability in the experiment with AGI-6780 + Phenformin (first compound 0.8 µM) was determined as 0.539; with AGI-6780 + Phenformin (first compound 2.53 µM) it was 0.526; in the experiment with AGI-6780 + Phenformin (first compound 8 µM), 0.539; with AGI-6780 + Pemetrexed (first compound 0.08 µM) it was 0.743; in the experiment with AGI-6780 + Pemetrexed (first compound 0.253 µM), 0.649; with AGI-6780 + Pemetrexed (first compound 0.8 µM), 0.616. The relative viability in the experiment with AGI-6780 + Pemetrexed (first compound 2.53 µM) was 0.676; with AGI-6780 + Pemetrexed (first compound 8 µM), 0.768.
Consider LXF-289, for which the relative viability was determined as 0.722 in the experiment with AGI-6780 + Trametinib (first compound 0.08 µM); 0.683 in the experiment with AGI-6780 + Trametinib (first compound 0.253 µM); 0.657 with AGI-6780 + Trametinib (first compound 0.8 µM); 0.74 with AGI-6780 + Trametinib (first compound 2.53 µM); 0.683 with AGI-6780 + Trametinib (first compound 8 µM); 0.967 with AGI-6780 + Navitoclax (first compound 0.08 µM). Also, the relative viability with AGI-6780 + Navitoclax (first compound 0.253 µM) turned out to be 0.939; with AGI-6780 + Navitoclax (first compound 0.8 µM), 0.936; with AGI-6780 + Navitoclax (first compound 2.53 µM), 0.987; with AGI-6780 + Navitoclax (first compound 8 µM) it was 0.939; with AGI-6780 + Phenformin (first compound 0.08 µM) it was 0.516; with AGI-6780 + Phenformin (first compound 0.253 µM) it was 0.518. Further, the relative viability was 0.538 in the experiment with AGI-6780 + Phenformin (first compound 0.8 µM); 0.529 with AGI-6780 + Phenformin (first compound 2.53 µM); 0.541 in the experiment with AGI-6780 + Phenformin (first compound 8 µM); 0.912 with AGI-6780 + Pemetrexed (first compound 0.08 µM); 0.763 in the experiment with AGI-6780 + Pemetrexed (first compound 0.253 µM); 0.964 in the experiment with AGI-6780 + Pemetrexed (first compound 0.8 µM). Besides, the relative viability with AGI-6780 + Pemetrexed (first compound 2.53 µM) came out at 1.04; with AGI-6780 + Pemetrexed (first compound 8 µM), 0.919.
NCI-H1437: the relative viability was 0.537 with AGI-6780 + Trametinib (first compound 0.08 µM); 0.548 in the experiment with AGI-6780 + Trametinib (first compound 0.253 µM); 0.512 in the experiment with AGI-6780 + Trametinib (first compound 0.8 µM); 0.406 with AGI-6780 + Trametinib (first compound 2.53 µM); 0.522 in the experiment with AGI-6780 + Trametinib (first compound 8 µM); 1.19 in the experiment with AGI-6780 + Navitoclax (first compound 0.08 µM). Besides, the relative viability with AGI-6780 + Navitoclax (first compound 0.253 µM) was found to be 1.06; with AGI-6780 + Navitoclax (first compound 0.8 µM), 1.12; with AGI-6780 + Navitoclax (first compound 2.53 µM) it was 1.07; with AGI-6780 + Navitoclax (first compound 8 µM), 0.966; with AGI-6780 + Phenformin (first compound 0.08 µM), 0.337; with AGI-6780 + Phenformin (first compound 0.253 µM), 0.382. Besides, the relative viability with AGI-6780 + Phenformin (first compound 0.8 µM) came out at 0.298; with AGI-6780 + Phenformin (first compound 2.53 µM) it was 0.327; with AGI-6780 + Phenformin (first compound 8 µM), 0.343; in the experiment with AGI-6780 + Pemetrexed (first compound 0.08 µM), 0.338; in the experiment with AGI-6780 + Pemetrexed (first compound 0.253 µM), 0.309; with AGI-6780 + Pemetrexed (first compound 0.8 µM), 0.356. Moreover, the values for the relative viability in the experiment with AGI-6780 + Pemetrexed (first compound 2.53 µM) and with AGI-6780 + Pemetrexed (first compound 8 µM) were 0.346 and 0.314, respectively.
For NCI-H647, the relative viability with AGI-6780 + Trametinib (first compound 0.08 µM) turned out to be 0.499; in the experiment with AGI-6780 + Trametinib (first compound 0.253 µM) it was 0.505; with AGI-6780 + Trametinib (first compound 0.8 µM), 0.476; with AGI-6780 + Trametinib (first compound 2.53 µM), 0.45; in the experiment with AGI-6780 + Trametinib (first compound 8 µM), 0.474; in the experiment with AGI-6780 + Navitoclax (first compound 0.08 µM), 1.2. The relative viability with AGI-6780 + Navitoclax (first compound 0.253 µM) was determined as 1.22; with AGI-6780 + Navitoclax (first compound 0.8 µM) it was 1.33; with AGI-6780 + Navitoclax (first compound 2.53 µM), 1.09; with AGI-6780 + Navitoclax (first compound 8 µM) it was 1.19; in the experiment with AGI-6780 + Phenformin (first compound 0.08 µM), 0.409; with AGI-6780 + Phenformin (first compound 0.253 µM), 0.609. For the same cell line, the relative viability in the experiment with AGI-6780 + Phenformin (first compound 0.8 µM) came out at 0.729; with AGI-6780 + Phenformin (first compound 2.53 µM), 0.408; with AGI-6780 + Phenformin (first compound 8 µM), 0.744; in the experiment with AGI-6780 + Pemetrexed (first compound 0.08 µM), 0.173; in the experiment with AGI-6780 + Pemetrexed (first compound 0.253 µM) it was 0.192; in the experiment with AGI-6780 + Pemetrexed (first compound 0.8 µM), 0.119. For the same cell line, the results for the relative viability with AGI-6780 + Pemetrexed (first compound 2.53 µM) and with AGI-6780 + Pemetrexed (first compound 8 µM) were 0.2 and 0.178, respectively.
As to NCI-H838, the relative viability came to 0.505 in the experiment with AGI-6780 + Trametinib (first compound 0.08 µM); 0.517 with AGI-6780 + Trametinib (first compound 0.253 µM); 0.481 in the experiment with AGI-6780 + Trametinib (first compound 0.8 µM); 0.474 with AGI-6780 + Trametinib (first compound 2.53 µM); 0.531 with AGI-6780 + Trametinib (first compound 8 µM); 1.19 with AGI-6780 + Navitoclax (first compound 0.08 µM). The relative viability in the experiment with AGI-6780 + Navitoclax (first compound 0.253 µM) worked out at 1.09; with AGI-6780 + Navitoclax (first compound 0.8 µM), 1.17; with AGI-6780 + Navitoclax (first compound 2.53 µM) it was 1.06; with AGI-6780 + Navitoclax (first compound 8 µM), 1.11; with AGI-6780 + Phenformin (first compound 0.08 µM) it was 0.644; with AGI-6780 + Phenformin (first compound 0.253 µM) it was 0.637. For the same cell line, the relative viability with AGI-6780 + Phenformin (first compound 0.8 µM) amounted to 0.643; with AGI-6780 + Phenformin (first compound 2.53 µM), 0.516; with AGI-6780 + Phenformin (first compound 8 µM) it was 0.631; in the experiment with AGI-6780 + Pemetrexed (first compound 0.08 µM), 0.258; with AGI-6780 + Pemetrexed (first compound 0.253 µM), 0.251; with AGI-6780 + Pemetrexed (first compound 0.8 µM) it was 0.249. The relative viability worked out at 0.23 with AGI-6780 + Pemetrexed (first compound 2.53 µM) and 0.225 in the experiment with AGI-6780 + Pemetrexed (first compound 8 µM).
For NCI-H727, the relative viability in the experiment with AGI-6780 + Trametinib (first compound 0.08 µM) came out at 0.415; with AGI-6780 + Trametinib (first compound 0.253 µM) it was 0.396; in the experiment with AGI-6780 + Trametinib (first compound 0.8 µM) it was 0.372; with AGI-6780 + Trametinib (first compound 2.53 µM), 0.365; in the experiment with AGI-6780 + Trametinib (first compound 8 µM), 0.38; in the experiment with AGI-6780 + Navitoclax (first compound 0.08 µM), 0.493. Also, the relative viability in the experiment with AGI-6780 + Navitoclax (first compound 0.253 µM) is 0.448; with AGI-6780 + Navitoclax (first compound 0.8 µM), 0.474; with AGI-6780 + Navitoclax (first compound 2.53 µM), 0.369; in the experiment with AGI-6780 + Navitoclax (first compound 8 µM), 0.494; with AGI-6780 + Phenformin (first compound 0.08 µM), 0.62; with AGI-6780 + Phenformin (first compound 0.253 µM) it was 0.536. Further, the figures for the relative viability with AGI-6780 + Phenformin (first compound 0.8 µM), in the experiment with AGI-6780 + Phenformin (first compound 2.53 µM) and with AGI-6780 + Phenformin (first compound 8 µM) were 0.687, 0.563 and 0.698, respectively.
NCI-H661: the relative viability with AGI-6780 + Trametinib (first compound 0.08 µM) came to 0.671; with AGI-6780 + Trametinib (first compound 0.253 µM), 0.61; with AGI-6780 + Trametinib (first compound 0.8 µM), 0.558; in the experiment with AGI-6780 + Trametinib (first compound 2.53 µM) it was 0.542; with AGI-6780 + Trametinib (first compound 8 µM), 0.62; with AGI-6780 + Phenformin (first compound 0.08 µM), 0.284. Besides, the relative viability with AGI-6780 + Phenformin (first compound 0.253 µM) stood at 0.344; with AGI-6780 + Phenformin (first compound 0.8 µM) it was 0.27; with AGI-6780 + Phenformin (first compound 2.53 µM), 0.261; in the experiment with AGI-6780 + Phenformin (first compound 8 µM), 0.252; with AGI-6780 + Pemetrexed (first compound 0.08 µM) it was 0.909; in the experiment with AGI-6780 + Pemetrexed (first compound 0.253 µM), 0.956. Besides, the relative viability worked out at 0.967 with AGI-6780 + Pemetrexed (first compound 0.8 µM), 0.969 with AGI-6780 + Pemetrexed (first compound 2.53 µM) and 0.905 in the experiment with AGI-6780 + Pemetrexed (first compound 8 µM).
